Laboratory results: patent US20230263800A1, “COMPOSITIONS AND METHODS TO PROMOTE THYMIC FUNCTION” (Fred Hutchinson Cancer Center, priority 2020, published 2023)
Entries after “also recorded” stand apart in the source; their conditions may differ. Like-named read-outs stand apart in the source and are kept apart here.

Columns and labels:
[1] = system: Foxn1 in C9 (cTEC) cells; test: Foxn1 expression by qPCR in C9 cells; assay type: cell-based, mouse
Description: (§1) FIGS. 7A, 7B. […] Graphs represent mean±SEM, each dot represents a biologically independent observation (n=3 independent experiments). *, p<0.05; **, p<0.01; ***p<0.001.
(§2) FIGS. 18A-18G. Thymuses were harvested at d0, d1, d2, and d3 after TBI (550 cGy) and (18A) mitochondrial membrane potential, (18B) Reactive oxygen species (ROS) levels, and (18C) glutathione levels were measured in DP thymocytes and cTECs (n=4-7 mice from 1-2 experiments). (18D) Foxn1 expression in FACs-purified cTECs at d0, d4, and d7 after TBI; (18E) Intracellular Ca2+ levels were measured on whole thymus harvested at d0, d2, d4, and d7 post SL-TBI. (18F, 18G) Foxn1 expression levels were measured by qPCR in (18F) C9, and (18G) TE71 cells after treatment with Tunicamycin (5 ug/ml) or Thapsigargan (1 μg/ml). Graphs represent mean+/−SD.
FIGS. 19A, 19B. (19A) C9s were treated with (19A) ATP and P2X7 antagonist or (19B) P2Y2 agonist or antagonist and FOXN1 expression was assessed by qPCR after 20 h. Graphs represent mean+/−SEM.
(§3) Cell cultures. exEC were generated as previously described (Seandel et al., Proc Natl Acad Sci USA. 2008, 105(49):19288-19293). Cells were cultured in presence of ultrapure Zn sulfate monohydrate purchased from Alfa Aesar (Haverhill, Mass. #1113809) or sodium pyrythione (Sigma Aldrich, St. Louis, Mo. #H3261-1G). TC-G 1008 was used in cell cultures at a final concentration of 25 μM. Silencing of the zinc receptor Gpr39 was performed by electroporation using Nucleofector electroporation kit (VPI-1001, Lonza; Program M-003, Nucleofector 2b, Lonza), and the GPR39 siRNA Silencer Select (Thermo, Waltham, Mass.). Mouse C9 (cTEC) and TE-71 (mTEC) cells were kindly provided by A. Farr, University of Washington.
PCR and Microarray. Reverse transcription-PCR was performed with iScript Clear gDNA cDNA synthesis kit (Bio Rad, Hercules, Calif.) on CFX96 (Bio Rad, Hercules, Calif.) with iTaq Universal SYBR Green (Bio Rad). Relative amounts of mRNA were calculated by the comparative AC(t) method or as relative expression. SYBR Green gene expression assays for qPCR, including Bmp4 (Mm00432087_m1), Foxn1 (Mm00433948_m1), beta-actin, Gpr39, Top1 were all purchased from Life Technologies (Carlsbad, Calif.) and Bio Rad (Hercules, Calif.). b-actin: synthesized by IDT, F: 5′-[…]-3′ (SEQ ID NO: 6), R: 5′-[…]-3′ (SEQ ID NO: 7). Top1: synthesized by IDT, sequences provided by PrimerBank, PrimerBank ID 6678399a1. Bmp4: Biorad qMmuCED0046239. Foxn1: Biorad qMmuCED0044924. Microarray data from CD45^− cells was analyzed on day 0, 4 and 7 as previously described (Wertheimer et al., Science Immunology. 2018, 3(19)) (GSE106982) and differential gene expression of Gpr39 was calculated.

[2] = system: Foxn1 in TE-71 (mTEC) cells; test: Foxn1 expression by qPCR in TE-71 cells; assay type: cell-based, mouse
Description: as §2
PCR and Microarray. […] Bmp4: Biorad qMmuCED0046239. Foxn1: Biorad qMmuCED0044924.

[3] = system: C57BL/6 mice given sublethal TBI; test: Thymic regeneration after sublethal total body irradiation (SL-TBI, 550 cGy); assay type: in vivo, mouse; details: for thymic regeneration (thymus cellularity): day 14
Excerpt: FIGS. 4A-4G. […] (4A, 4B) 6-8 week-old female C57BL/6 mice were fed a normal or ZD diet for 21 days at which point mice were given a sublethal dose of total body irradiation (TBI, 550 cGy). (4A) Total thymic cellularity at days 7 and 14 after TBI (n=10/treatment/timepoint across two independent experiments). (4B) Total number of CD45-EpCAM^+MHCII^+UEA1^loLy51^hi (cTECs) and CD45^− EpCAM^+MHCII^+UEA1^hi Ly51^lo (mTECs) at days 7 and 14 after TBI (n=10/treatment/timepoint across two independent experiments). (4C) 6-12 week-old female BALB.B mice were fed with normal or ZD diet for 21 days, at which point mice were given a lethal dose of TBI (900cGy) and 10×10^6 T cell-depleted bone marrow (BM) cells from 6-8 week-old C57BL/6. One cohort also received 2×10^6 T cells to induce graft versus host disease (GVHD); thymic cellularity was quantified on day 14 after allogeneic hematopoietic stem cell transplant (allo-HCT, n=5-6/group). (4D) 6-8 week-old female C57BL/6 mice were fed with normal or ZD diet for 21 days at which point mice were given 550 cGy TBI and total thymus cellularity quantified on day 14. […] (4E) Total thymic cellularity. (4F) Total number of cTECs and mTECs. (4G) Total number of Ki-67+ thymic endothelial cells (TECs). […]

[4] = system: C9 (cTEC) cells; details: graded doses of ZnSO4, 24 h
Description: as §1, §3
(§4) ELISA and Western Blot. Cell culture or tissue lysates were prepared in RIPA buffer (Thermo, Waltham, Mass.) as previously described (Wertheimer et al., Science Immunology. 2018, 3(19)) and normalized by BCA assay (Thermo, Waltham, Mass.). BMP4 levels were quantified by ELISA (LSBio, Seattle, Wash.) and read on a Spark 10M plate reader (Tecan, Switzerland). Cortisol levels were measured with ELISA on peripheral blood (R&D systems, Minneapolis, Minn.).

[5] = system: TE-71 (mTEC) cells; details: TE-71 cells, graded doses of ZnSO4, 24 h
Description: as §1, §3, §4

[6] = system: BMP4
Excerpt: (§5) FIGS. 8A-8F. […] (8A) 6-8 week-old female C57BL/6 mice were fed a normal or ZD diet for 21 days at which point mice were given 550 cGy TBI. […] Levels of BMP4 were quantified by enzyme-linked immunoassay (ELISA) at day 10 after TBI (n=5-10/group from one independent experiment). […] Mice were maintained on Zn-supplemented drinking water for the duration of the study. (8B) BMP4 levels measured by ELISA at day 10 (n=9/group combined from three independent experiments). (8C) Endothelial cells (ECs) were fluorescence-activated cell sorting (FACS) purified at day 7 and Bmp4 expression was measured by qPCR (n=6/group combined from two independent experiments). […] Total thymus cellularity was quantified at day 10 after TBI (n=5/group from one independent experiment).
as §4

[7] = system: Bmp4 in endothelial cells (ECs); details: 300 mg/kg/day ZnSO4 21 days before TBI, ECs sorted at day 7
Excerpt: as §5
PCR and Microarray. Reverse transcription-PCR was performed with iScript Clear gDNA cDNA synthesis kit (Bio Rad, Hercules, Calif.) on CFX96 (Bio Rad, Hercules, Calif.) with iTaq Universal SYBR Green (Bio Rad). Relative amounts of mRNA were calculated by the comparative AC(t) method or as relative expression. […] Microarray data from CD45^− cells was analyzed on day 0, 4 and 7 as previously described (Wertheimer et al., Science Immunology. 2018, 3(19)) (GSE106982) and differential gene expression of Gpr39 was calculated.

[8] = system: Bmp4 in exECs; test: Bmp4 expression by qPCR in exECs; assay type: cell-based, mouse; details: ZnSO4 50 and 100 μM, 24 hours
[9] = system: Bmp4 in exECs; test: BMP4 protein by ELISA in exECs; assay type: cell-based, mouse
Description: FIGS. 10A-10F. G-protein coupled receptor 39 (GPR39) expressed by thymic endothelial cells is the central mediator of Zn-centered regeneration. […] Bmp4 expression was measured by qPCR (n=6 combined from two independent experiments). (10B) GPR39 expression across subsets in the thymus by flow cytometry at baseline. […] (10C) Expression of GPR39 on cTECs, mTECs, ECs and fibroblasts at days 0, 4, and 7 after TBI. […] BM P4 was measured by ELISA.

[10] = 300 mg/kg/day ZnSO4 in drinking water for 21 days, Fluozin-3 and ICP-MS
Description: FIGS. 9A-9G. […] (9A, 9B) 6-8 week-old female C57BL/6 mice were given 550 cGy TBI and levels of Zn were measured by inductively coupled plasma mass spectrometry (ICP-MS). (9A) Total thymic amounts of Zn from both intracellular and extracellular fractions of thymus (n=6/timepoint). (9B) Extracellular Zn was measured only in thymic supernatants and the ratio of extracellular to total thymic Zn was calculated (n=6/timepoint). […] Thymocytes were isolated either before or 48 hours after TBI and co-cultured with exECs. Bmp4 expression was measured by qPCR at 24 hours (n=3-4/group). […] Thymus cellularity was measured at day 28 after TBI (n=4-5/group). (9E) 6-8 week-old female C57BL16 mice were fed a normal or ZD diet for 21 days after which thymocytes were isolated by CD90+ magnetic separation. Intracellular Zn levels were measured by staining with Fluozin-3 and assessed by flow cytometry (n=5/group across two independent experiments).

[11] = system: mice given TCD allo-HCT from RAG2-GFP donors; details: ZnSO4 in drinking water, peripheral blood and spleen after HCT, day 53
Description: FIGS. 12A-12D. […] (12A). […] (12B) Splenic T cells were analyzed for GFP expression on day 53 (n=4-5/group).

[12] = system: lineage-negative bone marrow (BM) co-cultured with OP9-DL1 cells; details: ZnSO4 10 μM added from day 0, read at day 30, versus control
Description: Concatenated flow cytometry plots displaying CD4 and CD8 expression at day 30 (n=5 independent experiments).
To confirm the importance of Zn on T cell maturation, lineage-negative bone marrow (BM) isolated from C57BL/6 mice were co-cultured on the OP9-DLL1 system, which is able to support T cell development in vitro (Schmitt et al., Nat Immunol. 2004, 5(4):410-417; and Holmes et al., Cold Spring Harb Protoc. 2009, 2009(2):pdb prot5156).
OP9-DL1 cells were kindly provided by J. C. Zuniga-Pflucker, University of Toronto and cultured as previously described (Holmes et al., Cold Spring Harb Protoc. 2009, 2009(2):pdb prot5156) using lineage-negative BM (using a lineage depletion kit, Miltenyi Biotech, Germany). Flt-3L and IL-7 were purchased from Peprotech (Rocky Hill, N.J.).

[13] = system: ERK1/2; details: exECs stimulated with Zn
Description: Flow cytometry, multidimensional analyses, and FACS sorting. For flow cytometry and cell sorting, surface antibodies against CD45 (30-F11), CD31 (390 or MEC13.3), CD90.2 (30-H12), TER-119 (TER-119), CD4 (RM4-5 or GK1.5), CD8 (53-6.7), TCRβ (H57-597), CD3 (145-2C11), CD44 (IM7), CD25 (PC 61.5), CD62L (MEL14), MHC-II IA/IE (M5/114.15.2), EpCAM (G8.8), Ly51 (6C3), CD11c (HL3), IL-7Ra (A7R34), CCR6 (140706), CD45.1 (A20), CD45.2 (104), ki-67 (16A8), and PDGFRa (APAS) were purchased from BD Biosciences (Franklin Lakes, N.J.), BioLegend (San Diego, Calif.) or eBioscience (San Diego, Calif.). Ulex europaeus agglutinin 1 (UEA-1), conjugated to FITC or Biotin, was purchased from Vector Laboratories (Burlingame, Calif.). GPR39 conjugated to FITC was purchased from Signalway Antibody (College Park, Md.). Red blood cell lysis was performed with ACK buffer (Thermo Scientific, Waltham, Mass.). Flow cytometry was performed on a Fortessa X50 (BD Biosciences, Franklin Lakes, N.J.) and cells were sorted on an Aria II (BD Biosciences) using FACSDiva (BD Biosciences, Franklin Lakes, N.J.). For intracellular cytokine or phosphoprotein analysis, cells were fixed and permeabilized using Fix Buffer I and Phospho-Perm Buffer III from BD Bioscience (Franklin Lakes, N.J.). Fluozin-3 AM was purchased from Thermo Fisher (Waltham, Mass.). Analysis was performed by FlowJo (Treestar Software, Ashland, Oreg.).

tunicamycin
Foxn1 expression ([1]; C9 cells, Tunicamycin 5 ug/ml): induced Foxn1 expression | Foxn1 expression ([2]; TE71 cells, Tunicamycin 5 ug/ml): induced Foxn1 expression

O=c1ccn([C@@H]2O[C@H](COP(=O)([O-])OP(=O)([O-])OP(=O)([O-])OP(=O)([O-])Oc3ccccc3)[C@@H](O)[C@H]2O)c(=O)[nH]1.[Na+].[Na+].[Na+].[Na+] [MRS 2768, tetrasodium; [[(2R,3S,4R,5R)-5-(2,4-dioxopyrimidin-1-yl)-3,4-dihydroxyoxolan-2-yl]methoxy-oxidophosphoryl] [oxido-[oxido(phenoxy)phosphoryl]oxyphosphoryl] phosphate]
thymic regeneration (thymus cellularity) ([3]; MRS 2768 5 mg/kg IP at day 3 after 550 cGy TBI, 5 mg/kg): superior thymic regeneration; also recorded: enhancing thymus cellularity | cTEC numbers ([3]; MRS 2768 5 mg/kg, d13 following TBI, 5 mg/kg): increased cTEC numbers; also recorded: expanding cTECs | Foxn1 expression [1]: increase in Foxn1 expression

C/C=C(/C)C(=O)O[C@H]1C(C)=C2[C@H]([C@@H]1OC(=O)CCCCCCC)[C@@](C)(OC(C)=O)C[C@H](OC(=O)CCC)[C@@]1(O)[C@H]2OC(=O)[C@@]1(C)O [thapsigargan]
effect on tunicamycin-induced Foxn1 expression ([1]; C9 cells, Thapsigargan 1 μg/ml): reversed | effect on tunicamycin-induced Foxn1 expression ([2]; TE71 cells, Thapsigargan 1 μg/ml): reversed

Cc1ccc2c(c1)C=Cc1cc(C)ccc1C2c1cn(Cc2ccc(C(=O)Nc3nn[nH]n3)o2)c(=O)[nH]c1=S [AR-C 1182925XX]
effect on P2Y2 agonist-induced Foxn1 expression ([1]; C9 cells, P2Y2 antagonist, 20 h): reversed

O=S(=O)([O-])[O-].[Zn+2] [ZnSO4, zinc sulphate]
TEC proliferation [4]: did not show any direct effect | TEC proliferation [5]: did not show any direct effect | Foxn1 expression ([1]; C9 cells, 100 μM ZnSO4, 24 h): did not show any direct effect | Foxn1 expression ([2]; TE-71 cells, 100 μM ZnSO4, 24 h): did not show any direct effect | BMP4 levels in the thymus ([6]; 300 mg/kg/day ZnSO4 21 days before TBI without prior ZD, day 10): increased levels of BMP4 | BMP4 levels in the thymus ([6]; ZD diet 21 days, 550 cGy TBI, 300 mg/kg/day ZnSO4 in drinking water from day 0, day 10): restored BMP4 levels | Bmp4 expression in purified ECs [7]: increased expression of Bmp4 | transcription of Bmp4 [8]: dose-dependent increase | BMP4 protein ([9]; ZnSO4, 48 hours): confirmed at the protein level | intracellular Zn in thymocytes [10]: significantly increased levels of intracellular Zn | GFP+ CD4+ and CD8+ lymphocytes (recent thymic emigrants) [11]: higher levels of GFP+CD4+ and CD8+ lymphocytes | production of DP (CD4+CD8+) cells [12]: more robust production of DP | phosphorylation of ERK1/2 [13]: led to phosphorylation of ERK1/2

Nc1ncnc2c1ncn2[C@@H]1O[C@H](COP(=O)(O)OP(=O)(O)OP(=O)(O)O)[C@@H](O)[C@H]1O [ATP]
thymic regeneration (thymus cellularity) ([3]; ATP by intraperitoneal injection at d3 after SL-TBI (legend: 5 mg/kg bzATP)): superior thymic regeneration; also recorded: enhancing thymus cellularity | Foxn1 expression ([1]; C9 cells, ATP, 20 h): potent inducer of FOXN1

Nc1[nH]nc2nnc(-c3c(-c4ccccc4)nn4ccccc34)cc12 [FR180204]
BMP4 production ([9]; ERK inhibitor FR180204 prior to ZnSO4 (100 μM), 24 hours): BMP4 production was abrogated
